Test results published in ChEMBL document CHEMBL6177915, “Design, synthesis and mechanistic insights into triclosan derived dimers as potential anti-plasmodials” (RSC Med Chem, 2025).

Legend:
Plasmodium falciparum [1] = test: Antiplasmodial activity against CQ-resistant Plasmodium falciparum W2 assessed as inhibition of parasite growth incubated for 72 hrs by HRP2 based ELISA; type: functional, organism-based; settings: W2, 72 h
Plasmodium falciparum [2] = test: Antiplasmodial activity against CQ-susceptible Plasmodium falciparum 3D7 assessed as inhibition of parasite growth incubated for 72 hrs by HRP2 based ELISA; type: functional, organism-based; settings: 3D7, 72 h
Plasmodium falciparum [3] = test: Resistance index, ratio of IC50 for antiplasmodial activity against CQ-resistant Plasmodium falciparum W2 to IC50 for antiplasmodial activity against CQ-susceptible Plasmodium falciparum 3D7; type: functional
[4] = Cytotoxicity against African green monkey Vero E6 cells assessed as cell viability measured after 48 hrs incubation by MTT assay; type: toxicity, cell-based, Vero C1008; settings: chlorocebus sabaeus
[5] = Selectivity index, ratio of CC50 for Cytotoxicity against African green monkey Vero E6 cells to IC50 for Antiplasmodial activity against CQ-resistant Plasmodium falciparum W2; type: toxicity, cell-based; settings: read-out: Ratio CC50/IC50
Heme [6] = test: Binding affinity to heme assessed as binding constant logK of the compound in HEPES buffer at pH 7.4
Heme [7] = test: Binding affinity to heme assessed as binding constant logK of the compound in MES buffer at pH 5.6
[8] = Inhibition of Plasmodium falciparum enoyl ACP reductase
Plasmodium falciparum [9] = test: Antiplasmodial activity against Plasmodium falciparum W2; type: functional, organism-based

Compound	IC50 (Plasmodium falciparum [1])	IC50 (Plasmodium falciparum [2])	Ratio IC50 (Plasmodium falciparum [3])	CC50 at 48 h [4]	selectivity ratio [5]	log K (Heme [6])	log K (Heme [7])	IC50 [8]	IC50 (Plasmodium falciparum [9])
O=[N+]([O-])c1cc(Oc2ccc(Cl)cc2Cl)c(OCc2cn(CCCCCCOc3cc(Cl)ccc3Oc3ccc(Cl)cc3Cl)nn2)cc1Cl	25.4 µM	26.3 µM	0.96	54.9 µM	2.2				
Clc1ccc(Oc2ccc(Cl)cc2OCCCCCn2cc(COc3cc(Cl)ccc3Oc3ccc(Cl)cc3Cl)nn2)c(Cl)c1	25.3 µM	19.3 µM	1.3	64.6 µM	2.6				
Oc1cc(Cl)ccc1Oc1ccc(Cl)cc1Cl						5.8	6.16		
C=C[C@H]1C[N@@]2CC[C@H]1C[C@H]2[C@H](O)c1ccnc2ccc(OC)cc12 [QUININE]				> 100 µM	> 222				
Oc1cc(Cl)c(NCc2cn(CCCCCCOc3cc(Cl)ccc3Oc3ccc(Cl)cc3Cl)nn2)cc1Oc1ccc(Cl)cc1Cl	25.7 µM	24.3 µM	1.05	66.3 µM	2.6				
CCNCc1cc(Nc2ccnc3cc(Cl)ccc23)ccc1O [DESETHYL AMODIAQUINE]			6	87 µM	725				
Clc1ccc(Oc2ccc(Cl)cc2OCCCCCCn2cc(COc3cc(Cl)ccc3Oc3ccc(Cl)cc3Cl)nn2)c(Cl)c1	32.6 µM	31.2 µM	1.04	104 µM	3.2				
O=[N+]([O-])c1cc(Oc2ccc(Cl)cc2Cl)c(OCc2cn(CCCCCOc3cc(Cl)ccc3Oc3ccc(Cl)cc3Cl)nn2)cc1Cl	30.7 µM	28.2 µM	1.08	116 µM	3.8				
N#Cc1ccc(Oc2ccc(Cl)cc2Cl)c(O)c1								0.049 µM	
C=C[C@H]1CN2CC[C@H]1C[C@H]2[C@H](O)c1ccnc2ccc(OC)cc12 [QUININE]	0.45 µM	0.12 µM	3.75						
O=[N+]([O-])c1cc(Oc2ccc(Cl)cc2Cl)c(OCc2cn(CCOc3cc(Cl)ccc3Oc3ccc(Cl)cc3Cl)nn2)cc1Cl	28.6 µM	29.8 µM	0.95	91.8 µM	3.6				
O=C(N/N=C/c1ccc(OCc2cn(CCNc3ccnc4cc(Cl)ccc34)nn2)cc1)c1cnncn1									0.26 µM
O=[N+]([O-])c1cc(Oc2ccc(Cl)cc2Cl)c(OCc2cn(CCCCOc3cc(Cl)ccc3Oc3ccc(Cl)cc3Cl)nn2)cc1Cl	25.4 µM	32.9 µM	0.77	83.9 µM	3.3				
Clc1ccc(Oc2ccc(Cl)cc2OCCCCCCOc2cc(Cl)ccc2Oc2ccc(Cl)cc2Cl)c(Cl)c1	20.3 µM	21.2 µM	0.95	63.3 µM	3.1				
Clc1ccc(Oc2ccc(Cl)cc2OCCn2cc(COc3cc(Cl)ccc3Oc3ccc(Cl)cc3Cl)nn2)c(Cl)c1	21.3 µM	21.9 µM	0.97	105 µM	4.9				
Clc1ccc(Oc2ccc(Cl)cc2OCCCOc2cc(Cl)ccc2Oc2ccc(Cl)cc2Cl)c(Cl)c1	30.9 µM	27.7 µM	1.11	81.5 µM	2.6				
O=[N+]([O-])c1cc(Oc2ccc(Cl)cc2Cl)c(OCc2cn(CCCOc3cc(Cl)ccc3Oc3ccc(Cl)cc3Cl)nn2)cc1Cl	25.8 µM	22.5 µM	1.14	81.9 µM	3.2				
Clc1ccc(Oc2ccc(Cl)cc2OCCCCn2cc(COc3cc(Cl)ccc3Oc3ccc(Cl)cc3Cl)nn2)c(Cl)c1	22.2 µM	20.7 µM	1.06	76.5 µM	3.5				
Clc1ccc(Oc2ccc(Cl)cc2OCCOc2cc(Cl)ccc2Oc2ccc(Cl)cc2Cl)c(Cl)c1	9.27 µM	12.1 µM	0.77	90.9 µM	9.8	6.4	6.58		
Oc1cc(Cl)c(NCc2cn(CCCCCOc3cc(Cl)ccc3Oc3ccc(Cl)cc3Cl)nn2)cc1Oc1ccc(Cl)cc1Cl	20 µM	27.5 µM	0.72	75 µM	3.8				
CCN(CC)CCCC(C)Nc1ccnc2cc(Cl)ccc12 (configuration not stated) [CHLOROQUINE]				> 100 µM					
Clc1ccc(Oc2ccc(Cl)cc2OCCCCOc2cc(Cl)ccc2Oc2ccc(Cl)cc2Cl)c(Cl)c1	22.3 µM	23.9 µM	0.93	99.7 µM	4.5				
Clc1ccc(Oc2ccc(Cl)cc2OCCCn2cc(COc3cc(Cl)ccc3Oc3ccc(Cl)cc3Cl)nn2)c(Cl)c1	24.7 µM	21 µM	1.17	103 µM	4.2				
Oc1cc(Cl)c(NCc2cn(CCCCOc3cc(Cl)ccc3Oc3ccc(Cl)cc3Cl)nn2)cc1Oc1ccc(Cl)cc1Cl	21.8 µM	24.2 µM	0.9	72.1 µM	3.3				
Oc1cc(Cl)c(NCc2cn(CCCOc3cc(Cl)ccc3Oc3ccc(Cl)cc3Cl)nn2)cc1Oc1ccc(Cl)cc1Cl	10.9 µM	20.8 µM	0.52	76.8 µM	7	5.17	6.3		
Clc1ccc(Oc2ccc(Cl)cc2OCCCCCOc2cc(Cl)ccc2Oc2ccc(Cl)cc2Cl)c(Cl)c1	34.4 µM	26.1 µM	1.31	70.2 µM	2				
Oc1cc(Cl)c(NCc2cn(CCOc3cc(Cl)ccc3Oc3ccc(Cl)cc3Cl)nn2)cc1Oc1ccc(Cl)cc1Cl	22.3 µM	17.2 µM	1.29	99.3 µM	4.5				
